Key:
[1] = tested on: S1P response in R2/R3 U2OS cells; experiment: Pathway blockers on S1P-mediated DMR response in R2/R3 U2OS cells; conditions: for % inhibition of the S1P DMR response: PTx overnight, U0126 2 μM, GF109203x 5 μM, GW583340 10 μM, tyrphostin 1 μM, GSK269962 2 μM, mean ± sd or average of two experiments
Protocol: (§1) Blocker stocks (250x) were prepared in DMSO or water and stored as aliquots at −20°C. Just before use, they were diluted to 2X their final concentration in assay buffer (D-PBS) at a final concentration of 0.4% DMSO. Concentrated stock solutions of the agonists somatostatin, carbachol, EGF, and sucralose were made in water or D-PBS while S1P was made up in 50% EtOH. Just before use, the agonists were diluted to 5X their final concentration in D-PBS at a final concentration of 0.4% DMSO. Final agonist concentrations were 10 μM somatostatin, 100 μM carbachol, 100–300 ng/ml EGF, 2 mM sucralose and 1 μM S1P. R2/R3 U2OS cells were plated as described above. The following day cells were washed on the Epic® with D-PBS/0.4% DMSO leaving a residual volume of 10 μl. 10 μl of D-PBS/0.4% DMSO was added to each well by hand followed by 20 μl of 2X pathway blocker. Cell plates were equilibrated on the Epic® for 90 min. After recording the baseline activity for 5 min, 10 μl of 5X agonist was added using the LHA and the DMR responses were monitored for an additional 40 min.
(§2) Cells were equilibrated at room temperature for 90 min in the Epic® reader with the indicated concentrations of pathway blockers or latrunculin A. In the case of PTx, cells were incubated over night at 37°C and on the day of the experiment PTx was replaced with buffer and cells were equilibrated in the Epic® reader as described above. A 5x-concentrated stock of agonist was then added onto the cells and DMR responses were recorded as described in Materials and Methods. […] Two to eight independent experiments were conducted with each blocker (number of independent experiments are indicated on the bar graph).

[2] = tested on: EGF response in R2/R3 U2OS cells; experiment: Pathway blockers on EGF-mediated DMR response in R2/R3 U2OS cells; conditions: for % inhibition of the EGF DMR response / effect on the EGF DMR response, in words: 100–300 ng/ml EGF; for % inhibition of the EGF DMR response: PTx overnight, wortmannin 200 nM, U0126 2 μM, GF109203x 5 μM, mean ± sd; for effect on the EGF DMR response, in words: latrunculin A 1 μM, GW583340 10 μM, tyrphostin 1 μM, GSK269962 2 μM
Protocol: as §1, §2

[3] = tested on: sucralose response (sweet taste receptor) in R2/R3 U2OS cells; experiment: Pathway blockers on sucralose-mediated DMR response in R2/R3 U2OS cells; conditions: for effect on the sucralose DMR response, in words: latrunculin A 1 μM, PTx overnight, wortmannin 200 nM, U0126 2 μM
Protocol: as §1, §2

[4] = tested on: carbachol response in R2/R3 U2OS cells; experiment: Pathway blockers on carbachol-mediated DMR response in R2/R3 U2OS cells; conditions: for effect on the carbachol DMR response, in words: latrunculin A 1 μM, wortmannin 200 nM, U0126 2 μM, GSK269962 2 μM
Protocol: as §1, §2

[5] = tested on: somatostatin response in R2/R3 U2OS cells; experiment: Pathway blockers on somatostatin-mediated DMR response in R2/R3 U2OS cells; conditions: for effect on the somatostatin DMR response, in words: latrunculin A 1 μM, wortmannin 200 nM, U0126 2 μM, GSK269962 2 μM
Protocol: as §1, §2

parental U2OS cells = experiment: DMR assay on parental U2OS cells (receptor-independent responses); assay type: cell-based
Protocol: The plates were incubated in the tissue culture hood for 20 min to allow cells to settle evenly at the bottom of the microplate and further cultured at 37°C in an atmosphere of 5% CO2 for 18–24 h. The next day, the cells were subjected to functional analysis using DMR. The lidded Epic® 384 microplate and polypropylene compound plate (Corning) were loaded into the carousel of the Epic® reader, the target plate was washed with DMSO matched D-PBS using the Corning Epic® Liquid Handling Accessory (LHA) and equilibrated in 25 μl of DMSO matched D-PBS for 90 min. […] When indicated, data for agonist dose-responses were normalized to data obtained with a maximum concentration of sucralose (1 mM) and then fitted and plotted using GraphPad Prism (San Diego, CA) and non-linear regression analysis.

[6] = target: T1, human sweet taste receptor (hT1R2/hT1R3) coupled to Gα15 (Homo sapiens, UniProt Q7RTX0+Q8TE23); experiment: FLIPR calcium mobilization assay, R2/R3 U2OS cells transduced with Gα15 baculovirus; assay type: cell-based; conditions: R2/R3 U2OS cells transduced with Gα15
T1 construct: expressed in transfected cells
T1 sequence (Q8TE23 20-839): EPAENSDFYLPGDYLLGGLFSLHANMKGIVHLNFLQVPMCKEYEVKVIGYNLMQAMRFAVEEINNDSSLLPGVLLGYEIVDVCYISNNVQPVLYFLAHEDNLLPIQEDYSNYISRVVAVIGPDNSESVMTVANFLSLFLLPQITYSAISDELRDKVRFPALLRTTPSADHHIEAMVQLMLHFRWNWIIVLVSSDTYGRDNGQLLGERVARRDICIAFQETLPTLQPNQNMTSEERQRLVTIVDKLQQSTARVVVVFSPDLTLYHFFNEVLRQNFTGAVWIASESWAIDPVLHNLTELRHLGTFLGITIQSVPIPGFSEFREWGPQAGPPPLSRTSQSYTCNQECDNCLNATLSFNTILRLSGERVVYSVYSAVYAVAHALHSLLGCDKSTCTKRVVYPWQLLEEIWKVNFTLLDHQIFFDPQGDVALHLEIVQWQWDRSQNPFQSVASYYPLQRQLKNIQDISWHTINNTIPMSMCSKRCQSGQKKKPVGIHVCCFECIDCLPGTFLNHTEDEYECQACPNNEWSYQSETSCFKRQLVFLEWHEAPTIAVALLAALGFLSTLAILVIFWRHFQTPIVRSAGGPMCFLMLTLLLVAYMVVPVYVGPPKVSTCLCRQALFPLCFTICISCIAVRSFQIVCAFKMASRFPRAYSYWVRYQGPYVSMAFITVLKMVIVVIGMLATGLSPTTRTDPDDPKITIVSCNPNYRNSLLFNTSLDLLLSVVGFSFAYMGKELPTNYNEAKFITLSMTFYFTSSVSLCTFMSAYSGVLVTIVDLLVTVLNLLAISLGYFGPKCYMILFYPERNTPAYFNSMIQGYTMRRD
T1 sequence (Q7RTX0 21-852): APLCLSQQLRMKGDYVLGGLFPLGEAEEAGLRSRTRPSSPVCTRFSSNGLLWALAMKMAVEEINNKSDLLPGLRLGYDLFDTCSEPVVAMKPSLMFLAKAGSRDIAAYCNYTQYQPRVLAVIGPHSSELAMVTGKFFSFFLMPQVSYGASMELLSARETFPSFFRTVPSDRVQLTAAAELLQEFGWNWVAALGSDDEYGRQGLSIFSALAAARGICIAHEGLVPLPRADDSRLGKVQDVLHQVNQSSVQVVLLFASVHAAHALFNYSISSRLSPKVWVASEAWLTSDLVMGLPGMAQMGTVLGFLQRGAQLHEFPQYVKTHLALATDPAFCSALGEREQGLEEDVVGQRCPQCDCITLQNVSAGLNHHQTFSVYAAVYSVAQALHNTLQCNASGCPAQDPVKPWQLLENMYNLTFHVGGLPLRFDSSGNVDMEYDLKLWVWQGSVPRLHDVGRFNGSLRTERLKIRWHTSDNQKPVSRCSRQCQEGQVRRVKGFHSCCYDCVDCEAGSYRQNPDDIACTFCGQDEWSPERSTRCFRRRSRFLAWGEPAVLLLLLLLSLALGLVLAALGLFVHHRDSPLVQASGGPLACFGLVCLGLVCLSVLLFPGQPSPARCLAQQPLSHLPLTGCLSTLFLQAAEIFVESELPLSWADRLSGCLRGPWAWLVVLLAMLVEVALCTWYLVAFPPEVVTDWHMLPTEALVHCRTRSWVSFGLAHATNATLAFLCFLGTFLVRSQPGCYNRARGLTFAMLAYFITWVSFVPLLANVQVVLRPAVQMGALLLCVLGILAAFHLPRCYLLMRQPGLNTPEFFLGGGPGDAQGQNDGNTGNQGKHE
Protocol: The Gα15 coding sequence was inserted in the HindIII-NotI sites and recombinant virus was generated using the Bac-to-Bac system (Life Technologies). Virus was further amplified by propagation in Sf9 cells grown in suspension using Sf900-II media. Virus titers were determined by plaque assay on Sf9 cells.
Cells were gently mixed with the virus at a multiplicity of infection (MOI) of 5. Using a multidrop, 70 μl per well of the cell and virus mixture was dispensed in a 384-well clear bottom plate (Fisher). After 24 h of incubation in a humidified 37°C tissue culture incubator, trichostatin A was added to a final concentration of 0.3 μM and the cells were incubated for another 18–24 h at 34°C. On the day of the experiment, cells were loaded with 4 μM of the calcium indicator Fluo-4 AM (Invitrogen) in D-PBS for 1 h at room temperature. After washing the cells with D-PBS using a cell washer (BioTek) and a 30-minute rest time, the cell plate and the compound plate were transferred into the FLIPR-Tetra (Molecular Devices). […] Loading and the FLIPR assay were run as described above. When indicated, data for agonist dose-responses were normalized to data obtained with a maximum concentration of sucralose (1 mM) and then fitted and plotted using GraphPad Prism (San Diego, CA) and non-linear regression analysis.
This value, that we termed pEC50Ratio (sucralose) or pEC50R (sucralose), was calculated with EC50 values obtained in the two assay systems. This transformation also allowed determination of an average and a standard error for the pEC50R (sucralose). The two sets of data (DMR and FLIPR data) were then analyzed with an un-paired t-test (α = 0.05). To calculate relative efficacy bias between the two assays, we captured the top asymptote value from each activity-normalized dose-response curve, as provided by the curve fit, calculated an average and a standard deviation (sd) for each agonist and then analyzed the data pairs with an un-paired t-test (α = 0.05). […] The following steps were followed: 1) Using the PRISM software, we re-analyzed each ligand’s dose-response data obtained in each assay with non-linear regression and the users-defined equation “New Operational Model with TauKa ratios” and retrieved logR values from the fits. 2) Subtracted each ligand’s logR value with that of our standard, the sucralose logR value, obtained from the same data set (each ligand dose-response assay data used in this analysis was accompanied with a sucralose dose-response ran on the same day), producing the ΔlogR value for leach ligand in each assay. 3) Calculated the mean and SEM from ΔlogR replicates (from three to nine independent dose-response analysis, in the two different assays). 4) Calculated ΔΔlogR values by subtracting the averaged ligands’ ΔlogR FLIPR values with the averaged ligands’ ΔlogR DMR values.

[7] = Homo sapiens, U2OS, read-out: % inhibition of the S1P DMR response
[8] = Homo sapiens, U2OS, read-out: % inhibition of the sucralose DMR response
[9] = Homo sapiens, U2OS, read-out: % inhibition of the carbachol DMR response
[10] = Homo sapiens, U2OS, read-out: % inhibition of the somatostatin DMR response

CN(C)CCCn1cc(C2=C(c3c[nH]c4ccccc34)C(=O)NC2=O)c2ccccc21 [GF109203x]
% inhibition of the S1P DMR response ([1]; 1 μM S1P): 15%
% inhibition of the EGF DMR response [2]: 22 ± 11%
% inhibition of the sucralose DMR response ([3]; 2 mM sucralose, GF109203x 5 μM, GW583340 10 μM, tyrphostin 1 μM, mean ± sd or average of two experiments): −7 ± 10%
% inhibition of the carbachol DMR response ([4]; 100 μM carbachol, PTx overnight, GF109203x 5 μM, GW583340 10 μM, tyrphostin 1 μM, mean ± sd or average of two experiments): 67 ± 4%
% inhibition of the somatostatin DMR response ([5]; 10 μM somatostatin, PTx overnight, GF109203x 5 μM, GW583340 10 μM, tyrphostin 1 μM, mean ± sd or average of two experiments): 8%

CCn1c(-c2nonc2N)nc2cnc(Oc3cccc(NC(=O)c4ccc(OCCN5CCOCC5)cc4)c3)cc21 [GSK269962]
% inhibition of the S1P DMR response ([1]; 1 μM S1P): 77 ± 14%
effect on the EGF DMR response, in words [2]: not affected
% enhancement of the sucralose DMR response ([3]; 2 mM sucralose, GSK269962 2 μM, mean ± sd, n = 3): 28 ± 11%
effect on the carbachol DMR response, in words ([4]; 100 μM carbachol): not affected
effect on the somatostatin DMR response, in words ([5]; 10 μM somatostatin): not affected

CS(=O)(=O)CCNCc1nc(-c2ccc3ncnc(Nc4ccc(OCc5cccc(F)c5)c(Cl)c4)c3c2)cs1 [GW583340]
inhibition at 10 µM [1, 7]: -16%
effect on the EGF DMR response, in words [2]: abolished
inhibition at 10 µM [3, 8]: 3.1%
inhibition at 10 µM [4, 9]: 7.6%
inhibition at 10 µM [5, 10]: -0.3%

C/C1=C/C(=O)O[C@@H]2C[C@@H](CC[C@H](C)/C=C\C=C\CC1)O[C@@](O)([C@@H]1CSC(=O)N1)C2 [Latrunculin A]
effect on the S1P DMR response, in words ([1]; 1 μM S1P, latrunculin A 1 μM): disrupted
effect on the EGF DMR response, in words [2]: disrupted
effect on the sucralose DMR response, in words ([3]; 2 mM sucralose): disrupted
effect on the carbachol DMR response, in words ([4]; 100 μM carbachol): disrupted
effect on the somatostatin DMR response, in words ([5]; 10 μM somatostatin): disrupted

N#CC(=C(/N)Sc1ccccc1N)/C(C#N)=C(/N)Sc1ccccc1N [U0126]
% inhibition of the S1P DMR response ([1]; 1 μM S1P): 19 ± 26%
% inhibition of the EGF DMR response [2]: 54 ± 15%
effect on the sucralose DMR response, in words ([3]; 2 mM sucralose): no statistically significant effects
effect on the carbachol DMR response, in words ([4]; 100 μM carbachol): no statistically significant effects
effect on the somatostatin DMR response, in words ([5]; 10 μM somatostatin): no statistically significant effects

COc1ccc(OC(C)C(=O)O)cc1 (centres unmarked) [lactisole, 2-(4-methoxyphenoxy)-propionic acid]
DMR response on parental U2OS cells, in words (parental U2OS cells): positive DMR response

OC[C@H]1O[C@@](CO)(O[C@H]2O[C@H](CO)[C@@H](O)[C@H](O)[C@H]2O)[C@@H](O)[C@@H]1O [sucrose]
response in the FLIPR assay, in words [6]: readily detected
DMR response on parental U2OS cells, in words (parental U2OS cells): produced significant DMR responses

COc1cc2ncnc(Nc3cccc(Cl)c3)c2cc1OC [tyrphostin, Tyrphostin AG 1478]
inhibition at 1 µM [1, 7]: -7%
effect on the EGF DMR response, in words [2]: abolished
inhibition at 1 µM [3, 8]: 2.6%
inhibition at 1 µM [4, 9]: -10.8%
inhibition at 1 µM [5, 10]: 3.1%

COC[C@H]1OC(=O)c2coc3c2[C@@]1(C)C1=C(C3=O)[C@@H]2CCC(=O)[C@@]2(C)C[C@H]1OC(C)=O [wortmannin]
% enhancement of the S1P DMR response ([1]; 1 μM S1P, wortmannin 200 nM, mean ± sd, n = 4): 61 ± 22%
inhibition at 0.2 µM ([2]; Homo sapiens, U2OS, read-out: % inhibition of the EGF DMR response): 42 ± 10%
effect on the sucralose DMR response, in words ([3]; 2 mM sucralose): no statistically significant effects
effect on the carbachol DMR response, in words ([4]; 100 μM carbachol): no statistically significant effects
effect on the somatostatin DMR response, in words ([5]; 10 μM somatostatin): no statistically significant effects

Reference: PMC8893300, “A Dynamic Mass Redistribution Assay for the Human Sweet Taste Receptor Uncovers G-Protein Dependent Biased Ligands” (Frontiers in Pharmacology, 2022)
